From patent US20060190192A1, “Databases for assessing nucleic acids” (Medical College of Ohio, priority 2005, published 2006)

How the values were obtained:
[1] = test system: cytochrome p450 (CYP) IAI gene; assay: Northern analysis of CYPIAI gene expression in β-napthoflavone-exposed BEP2D cells; format: cell-based, human; conditions: β-napthoflavone 10 μM vs 0.1% DMSO control, 32P-labeled CYPIAI cDNA probe
Procedure: (§1) In a second set of experiments, multiplex competitive reverse transcriptase polymerase chain reaction (MC RT-PCR) with competitive templates were prepared by the Celi method to evaluate the cytochrome p450 (CYP) IAI gene in β-napthoflavone-exposed BEP2D cells. The induction of CYPIAI gene expression was evaluated using both MC RT-PCR with Celi competitive templates, and Northern analysis. Competitive templates were prepared for both the CYPIAI and GAPDH genes. The primers used to prepare the competitive template for GAPDH were: […]
RNA from BEP2D cells incubated for varying times with β-napthoflavone (10 μM) was either electrophoresed on a 1% LE formaldehyde denaturing gel for Northern analysis or MC RT-PCR amplified, as described above. For Northern analysis, following transfer of the RNA to GeneScreen, the filters were hybridized with ^32P-labeled CYPIAI cDNA.
FIG. 36A illustrates Northern analysis of RNA obtained from BEP2D cells that were treated with 0.1% DMSO as a control, or, β-napthoflavone in an effort to induce cytochrome p450 IA1 (CYPIA1). FIG. 36B illustrates DNA PCR-amplified from serial dilutions of cDNA from the same cells used in FIG. 36SA. The cDNA was co-amplified in the presence of competitive templates for GAPDH and CYPIAI, according to some embodiments of the instant invention.

[2] = test system: cytochrome p450 (CYP) IAI gene; assay: MC RT-PCR with Celi competitive templates: induction of CYPIAI gene expression in β-napthoflavone-exposed BEP2D cells; format: cell-based, human; conditions: β-napthoflavone 10 μM, control 0.1% DMSO, cDNA loading matched by GAPDH native/competitive template bands
Procedure: as §1
The PCR amplification conditions were the same as described for experiments using the competitive templates prepared for GAPDH and GSHPx by the Higuchi method except the annealing temperature was 55 degrees centigrade and the amplification was carried out for 38 cycles.
Because the native and competitive templates separate without prior restriction endonuclease digestion, samples were taken directly from the PCR reaction tube and applied to ethidium bromide stained 3% Nusieve, 1% LE agarose gels. It was then possible to quantify the products by taking a negative photograph of the gel using Polaroid 665 positive/negative instant film, subjecting the negative photograph to densitometry. […]

gene expression of the CYPIAI gene [1]: increase | band representing the native CYPIAI gene, exposed cells compared to control cells [2]: much more strongly represented
Structure (SMILES): O=c1cc(-c2ccccc2)oc2ccc3ccccc3c12 [β-napthoflavone]
